According to patent US8168642B2, “Dihydropyrimidine compounds and their uses in preparation of medicaments for treating and preventing antiviral diseases” (Beijing Molecule Science and Technology Co., Ltd., priority 2006, dated 2012):

Experiments:
[1] = system: HBV DNA; test: Antiviral activity: inhibition of HBV DNA in supernatant of HepG 2.2.15 cells (dot blot hybridization); format: cell-based; conditions: Hepatitis B virus, HepG2.2.15, 192 h, 8 days incubation, HB-specific DNA in supernatant, read-out: IC50 (inhibitory effect on HBV DNA)
Protocol: The antiviral effect of the compound of the present invention is determined according to the methods described by Sells, et al (M. A. Sells, M. L. Chen, G. Proc. Natl. Acad. Sci. 1987, 84, 1005-1009) and Korba, et al (B. E. Korba, J. L. Gerin Antiviral Research 1992, 19, 55-70).
(§1) The antiviral test was carried out in a 96-cell microtiter plate. The first column of the plate only contained a culture medium and HepG 2.2.15 cells, as a blank control.
(§2) First, a stock solution ([…]) of a test compound was dissolved in DMSO, and further diluted with a culture medium for growth of HepG 2.2.15 cells. Usually, the compound of the present invention was transferred by suction at a test concentration of 100 μg/ml (the first test concentration) to each cell of the second column of the microtiter plate, and then diluted with the culture medium for growth plus 2% fetal bovine serum (25 μL), by 2 times once, up to 2^10 times at the maximum.
(§3) Then, 225 μL of a suspension of HepG 2.2.15 cells in the culture medium for growth plus 2% fetal bovine serum (5×10^4 cells/ml) was added to each cell of the 96-cell microtiter plate.
(§4) The test mixture was incubated under the conditions of 37° C., 5% CO2 for 4 days. Then, the supernatant was removed by suction, and to each cell 225 μL of a new-prepared culture medium for growth was added. Again, the compound of the present invention was added with a solution of 25 μL. The obtained mixture was further incubated for 4 days.
Thereafter, the supernatant was collected, and sucked in vacuum to a 96-cell dot blot chamber covered by nylon film (used in accordance with the instructions for use provided by the manufacturer).
Determination of Antiviral Activity
After the supernatant was transferred onto the nylon film of the dot blot device (see the contents hereinabove), the supernatant of HepG 2.2.15 cells was denaturated (1.5 M NaCl/0.5 M NaOH), neutralized (3 M NaCl/0.5 M Tris. HCl, pH 7.5) and washed (2×SSC). Then, the filter film was kept at 120° C. for 2-4 hours, whereby DNA was baked on the filter film.
Usually, viral DNA of HepG 2.2.15 cells treated on the nylon film was detected by using a non-radioactive digoxigenin labeled HB-specific DNA probe. Wherein, each time the probe was labeled with digoxigenin, purified and hybridized according to the directions for use given by the manufacturer.
Briefly, pre-hybridization and hybridization were conducted with 5×SSC, 1× blocking agent, 0.1% N-lauroyl sarcosine, 0.02% SDS and 100 μg sperm DNA of black carp. After pre-hybridization at 60° C. for 30 min, a specific hybridization (at 60° C. for 14 hr) was conducted with 20-40 ng/ml digoxigenin labeled denaturalized HBV specific DNA. Then, the film was washed, followed by HBV DNA detection with digoxigenin antibody.
The immunology detection of digoxigenin labeled DNA was conducted according to the directions for use given by the manufacturer.
Briefly speaking, the film was washed and pre-hybridized with a blocking agent (in accordance with the directions for use given by the manufacturer), and then hybridized with an anti-DIG antibody that had been previously coupled onto an alkaline phosphatase for 30 min. After washing, an alkaline phosphatase substrate CSPD was added, and cultured together with the filter for 5 min, and then wrapped in a plastic film, followed by further culturing at 37° C. for 15 min. The filter was exposed to X-ray, and the chemical luminous signal (culturing for 10 min to 2 hr according to the signal strength) of HB-specific DNA on the film was detected, whereby a half inhibitory concentration (IC50) was calculated.
The half inhibitory concentration (IC50) refers to the concentration of the compound of the present invention which reduces the HB-specific band by 50% as compared with the untreated sample.

[2] = system: HepG 2.2.15 cells; test: Cytotoxicity in HepG 2.2.15 cells (cell morphology under microscope after 8 days, Reed&Muench); format: cell-based; conditions: pathological change of cells after 8 days
Protocol: as §1, §2, §3, §4
Prior to collection of the supernatant for determination of the antiviral effect, the change in cytotoxicity of HepG 2.2.15 cells was investigated by using optical microscopic technique or biochemical detection method (e.g., Alamar Blue staining or Trypan Blue staining).
Determination of Cytotoxicity
The substance-induced change in cytotoxicity in HepG 2.2.15 cells or in inhibition of the cells could be determined by using, e.g., optical microscopic technique, and expressed by the change of cell morphology. Such substance-induced changes, e.g., cell lysis, cavity formation or change in cell morphology, in HepG 2.2.15 cells were apparent as compared to the untreated cells.
Taking the observed pathological change of cells as index, the pathological change of cells was observed under microscope after 8 days, a complete destroy being indicated as 4; 75% being indicated as 3; 50% being indicated as 2; 25% being indicated as 1; and no pathological change being indicated as 0. The average extents of pathological change of cells and the inhibition percentages at various concentrations were calculated. According to Reed&Muench method, a half toxic concentration (TC50) and a maximum non-toxic concentration (TC0) were calculated.
TC50 refers to the concentration of the compound of the present invention when 50% of cells have a similar morphology to the corresponding cells as a control.

Structure (SMILES)	IC50 [1] [µM]	melting point [°C]	TD50 [2] [µM]
COC(=O)C1=C(C)NC(c2c(F)cccc2F)=NC1c1ccc(F)cc1Cl (stereo not drawn) [Example 55, methyl 2-(2,6-difluorophenyl)-4-(2-chloro-4-fluorophenyl)-6-methyl-1,4-dihydro-pyrimidin-5-carboxylate]	4.01	126 to 128	60.84
CCOC(=O)C1=C(C)NC(c2cscn2)=NC1c1ccc(F)cc1Cl (stereo not drawn) [Example 1, ethyl 2-(thiazol-4-yl)-4-(2-chloro-4-fluorophenyl)-6-methyl-1,4-dihydro-pyrimidin-5-carboxylate]	3.35	140 to 142	50.59
CCOC(=O)C1=C(C)NC(c2nccn2Cc2ccccc2)=NC1c1ccc(F)cc1 (stereo not drawn) [Example 51, ethyl 2-(N-benzyl-1H-imidazol-2-yl)-4-(4-fluorophenyl)-6-methyl-1,4-dihydro-pyrimidin-5-carboxylate]	6.65	162 to 164	36.87
COC(=O)C1=C(C)NC(c2scnc2C)=NC1c1ccc(F)cc1Cl (stereo not drawn) [Example 37, methyl 2-(4-methylthiazol-5-yl)-4-(2-chloro-4-fluorophenyl)-6-methyl-1,4-dihydro-pyrimidin-5-carboxylate]	14.6	145 to 147	101.42
CCOC(=O)C1=C(C)NC(c2csc(Cl)n2)=NC1c1ccc(F)cc1Cl (stereo not drawn) [Example 33, ethyl 2-(2-chlorothiazol-4-yl)-4-(2-chloro-4-fluorophenyl)-6-methyl-1,4-dihydro-pyrimidin-5-carboxylate]	0.87	141 to 143	7.17
CCOC(=O)C1=C(C)NC(c2c(F)cccc2F)=NC1c1ccc(F)cc1Cl (stereo not drawn) [Example 56, ethyl 2-(2,6-difluorophenyl)-4-(2-chloro-4-fluorophenyl)-6-methyl-1,4-dihydro-pyrimidin-5-carboxylate]	2.03	163 to 165	117.50
CCOC(=O)C1=C(C)NC(c2c(F)cc(F)cc2F)=NC1c1ccc(F)cc1Cl (stereo not drawn) [Example 58, ethyl 2-(2,4,6-trifluorophenyl)-4-(2-chloro-4-fluorophenyl)-6-methyl-1,4-dihydro-pyrimidin-5-carboxylate]	2.6	184 to 186	32.50
COC(=O)C1=C(C)NC(c2c(F)cc(F)cc2F)=NC1c1ccc(F)cc1Cl (stereo not drawn) [Example 59, methyl 2-(2,4,6-trifluorophenyl)-4-(2-chloro-4-fluorophenyl)-6-methyl-1,4-dihydro-pyrimidin-5-carboxylate]	3.39	112 to 114	>30.30
COC(=O)C1=C(C)NC(c2sc(C)nc2C)=NC1c1ccc(F)cc1Cl (stereo not drawn) [Example 39, methyl 2-(2,4-dimethylthiazol-5-yl)-4-(2-chloro-4-fluorophenyl)-6-methyl-1,4-dihydro-pyrimidin-5-carboxylate]	3.2	116 to 118	165.90
CCOC(=O)C1=C(C)NC(c2nccn2C)=NC1c1ccc(F)cc1 (stereo not drawn) [Example 53, ethyl 2-(N-methyl-1H-imidazol-2-yl)-4-(4-fluorophenyl)-6-methyl-1,4-dihydro-pyrimidin-5-carboxylate]	10.2	134 to 136	281.14
